These results are taken from PubChem BioAssay (NCI).

What all share (assay): NCI anticancer screen, dose series, 48 h
Test [1] relates to MOLT-4 leukemia.
The test system of test [2] is CCRF-CEM leukemia.
Test [3] has as its system HL-60(TB) leukemia.
Test [4] has as its system SK-OV-3 ovarian.
Test [5] relates to NCI/ADR-RES ovarian.
Test [6] has as its system OVCAR-3 ovarian.
For test [7], the system named is K-562 leukemia.
The subject of test [8] is HCC-2998 colon.
Test [9] concerns SN12C renal.
Test [10] concerns SK-MEL-28 melanoma.
Test [11] concerns SNB-19 CNS.
The subject of test [12] is HT29 colon.
The test system of test [13] is OVCAR-8 ovarian.
The test system of test [14] is SF-295 CNS.
Test [15] deals with NCI-H23 lung.
In test [16] the test system is SW-620 colon.
Test [17] relates to HCT-116 colon.
Test [18] has as its system RXF 393 renal.
Test [19] concerns SK-MEL-2 melanoma.
The test system of test [20] is COLO 205 colon.

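Cells were grown in 96-well plates and exposed to each compound for 48 hours at five concentrations; endpoints were interpolated linearly between bracketing concentrations, or set to the highest concentration if not reached. TGI is the concentration that stops growth completely.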

Consider `N#CCOc1ccc(/C=C/C(=O)c2ccc(Cl)cc2)cc1`, for which the TGI in test [1] was greater than 100 µM; in [2] it was greater than 100 µM; in test [3], greater than 100 µM; in [4], 37.3 µM; in [5] it was 48.5 µM; in test [6], greater than 100 µM. Moreover, the TGI in [7] is greater than 100 µM; in test [8], 98.8 µM; in test [9], greater than 100 µM; in test [10], greater than 100 µM; in test [11], 61.7 µM; in [12], greater than 100 µM. The TGI is 93.6 µM in [13]; 53.9 µM in test [14]; 76.3 µM in [15]; 70.4 µM in test [16]; 27.8 µM in test [17]; 38.5 µM in [18].
Regarding `Cc1[nH]n(C(=N)N)c(=O)c1CCO`, the TGI in [19] is greater than 100 µM; in test [2] it was greater than 100 µM; in [3] it was greater than 100 µM; in test [4], greater than 100 µM; in test [5] it was 8.93 µM; in test [6] it was greater than 100 µM. Also, the TGI in [7], in test [8], in [9], in [10], in test [11] and in [12] was greater than 100 µM in each case. The TGI was 3.17 µM in test [13]; greater than 100 µM in test [14]; greater than 100 µM in test [15]; greater than 100 µM in [16]; greater than 100 µM in [17]; greater than 100 µM in test [20]. The molecule further registered a TGI in test [18] greater than 100 µM.
With `Cc1c(/C=N/NC(=S)Nc2ccccc2)c(=O)n(-c2ccccc2)n1C`, the TGI in [1], in test [19], in test [2], in test [3], in [4] and in test [5] was greater than 100 µM in each case. The TGI in test [7], in [8], in test [10], in [11], in test [12] and in test [13] was greater than 100 µM in each case. Further, the TGI in [14], in test [15], in test [16], in test [17], in test [20] and in [18] was greater than 100 µM in each case.
On to `CC(=O)Nc1ccc(-c2nc3ccccc3s2)cc1C`, for which the TGI in test [1], in test [19], in [2], in [3], in test [4] and in test [5] was greater than 100 µM throughout. The TGI in test [8], in [10], in test [11], in test [12], in [13] and in test [14] was greater than 100 µM throughout. Besides, the TGI in [15], in test [16], in test [17], in [20] and in test [18] was greater than 100 µM each time.
With `O=[N+]1ON=C(c2ccccc2)C1=C1C(c2c(-c3ccccc3)no[n+]2[O-])=NON1[O-]`, the TGI in test [1] is greater than 100 µM; in test [2] it was greater than 100 µM; in test [3] it was 7.52 µM; in [4] it was greater than 100 µM; in [5], greater than 100 µM; in test [6], 30.6 µM. In addition, the TGI in test [7] is 10.6 µM; in test [8], greater than 100 µM; in test [9], greater than 100 µM; in test [10], greater than 100 µM; in test [11], greater than 100 µM; in [12], 24.8 µM. Besides, the TGI in test [13] is greater than 100 µM; in test [14], greater than 100 µM; in test [15], 20.7 µM; in test [16] it was greater than 100 µM; in [17], 16.2 µM; in test [20], 25.4 µM. The molecule further displayed a TGI in test [18] of 10.1 µM.
Regarding `COc1ccc(P2(=S)SP(=S)(c3ccc(Cl)cc3)S2)cc1` (stereo not given), the TGI in test [1], in test [19], in [2], in test [3], in test [4] and in [5] was greater than 100 µM in each case. For the same molecule, the TGI in test [6], in [8], in [9], in test [10], in [11] and in [12] was greater than 100 µM throughout. The TGI in test [13], in test [14], in test [15], in [16], in test [17] and in test [20] was greater than 100 µM each time. The molecule also returned a TGI in [18] greater than 100 µM.
For the molecule `CCOC(=O)C1=c2[nH]c3cccc4cccc(c43)n2C(=O)CC1c1ccccc1` (stereo not given), the TGI in [1], in test [19], in test [2], in test [3], in [4] and in test [5] was greater than 100 µM in each case. Further, the TGI in [7], in test [8], in test [9], in [10], in test [11] and in test [12] was greater than 100 µM in each case. For the same molecule, the TGI in [13], in [14], in test [15], in test [16], in [17] and in test [20] was greater than 100 µM throughout. In addition, the TGI in test [18] is greater than 100 µM.
As for `CCOC(=O)C(=[N+]=[N-])C(=O)CN1C(=O)C2CC(C)=C(C)CC2C1O` (stereo not given), the TGI in test [1], in test [19], in test [2], in test [3], in test [5] and in [6] was greater than 100 µM in each case. Besides, the TGI in test [7], in test [8], in [10], in test [11], in [12] and in test [13] was greater than 100 µM in each case. In addition, the TGI in test [14], in test [15], in test [16], in test [17], in test [20] and in test [18] was greater than 100 µM in each case.
In the case of `O=C1C(Cl)C2(CC(/C=C/c3ccccc3O)=NN2c2cccc(S(=O)(=O)O)c2)N1c1nc2ccccc2s1` (stereo not given), the TGI in test [1] is 47.7 µM; in test [19] it was 40.8 µM; in [2], 34.7 µM; in test [3], 14.5 µM; in test [5], greater than 100 µM; in [7], 86.1 µM. For the same molecule, the TGI in test [8] is 29 µM; in test [9] it was 27.8 µM; in [10] it was 71.2 µM; in [11] it was greater than 100 µM; in [12], 39 µM; in test [13] it was 63.9 µM. For the same molecule, the TGI in test [15] was 33.2 µM; in test [16], 42.9 µM; in test [17], 31 µM; in test [20] it was 38.7 µM; in test [18], greater than 100 µM.
For the molecule `COc1c2c(cc3c1OCO3)C13C=CC(OC)CC1N(CC3)C2` (stereo not given), the TGI in test [1], in test [19], in test [2], in [3], in [4] and in test [5] was greater than 100 µM each time. Also, the TGI in test [6], in [8], in test [9], in [10], in test [11] and in test [12] was greater than 100 µM in each case. Also, the TGI in test [13], in test [14], in test [15], in test [16], in [17] and in test [20] was greater than 100 µM throughout. In addition, the TGI in test [18] is greater than 100 µM.
With `Cc1c(-c2ccccc2)c(C#N)c2nnn(C3CCCCC3)c(=O)n12`, the TGI in test [19], in [2], in [3], in [4], in [5] and in test [6] was greater than 100 µM each time. In addition, the TGI in test [7], in test [8], in test [9], in test [10], in [11] and in test [12] was greater than 100 µM each time. Moreover, the TGI in [13], in [14], in [15], in [16], in test [17] and in [20] was greater than 100 µM each time. The molecule also came in with a TGI in test [18] of 71.7 µM.
As for `COc1cc(CNC2=NCCC2)cc(OC)c1OC`, the TGI in test [1], in test [2], in test [3], in [4], in test [5] and in test [6] was greater than 100 µM in each case. In addition, the TGI in test [7], in [8], in [9], in test [10], in test [11] and in [12] was greater than 100 µM in each case. Besides, the TGI in test [13], in test [14], in test [15], in [16], in [17] and in [20] was greater than 100 µM in each case. The molecule further displayed a TGI in test [18] greater than 100 µM.
Turning to `CC(=O)Oc1c2c(c(CC=C(C)C)c3c1C(=O)C1=C[C@@H]4CC5C(C)(C)OC(C/C=C(/C)C(=O)O)(C4=O)[C@@]15O3)OC(C)(CCC=C(C)C)C=C2` (stereo not given in full), the TGI in [1] is 32 µM; in test [19], 0.982 µM; in [2], 4.75 µM; in test [3], 10.6 µM; in test [4], 1.91 µM; in test [5], 2.7 µM. Also, the TGI in test [6] is 0.922 µM; in test [8] it was 1.62 µM; in [9], 0.53 µM; in test [10], 0.378 µM; in test [11] it was 1.38 µM; in test [12] it was 0.598 µM. Besides, the TGI turned out to be 0.747 µM in test [13]; 1.67 µM in test [14]; 1.01 µM in test [15]; 0.241 µM in test [16]; 0.316 µM in [17]; 0.421 µM in test [20]. Further, the TGI in test [18] amounted to 0.336 µM.
As to `CN(C)c1ccc(-c2c(C#N)c(O)n(NS(=O)(=O)c3ccccc3)c(=O)c2C#N)cc1`, the TGI in test [1] is greater than 100 µM; in [19], greater than 100 µM; in test [2] it was greater than 100 µM; in [3], greater than 100 µM; in test [4] it was 37 µM; in [5], greater than 100 µM. Also, the TGI in test [7], in test [8], in test [9], in test [10], in test [11] and in [12] was greater than 100 µM in each case. In addition, the TGI in test [13], in [16], in test [17], in test [20] and in [18] was greater than 100 µM in each case.
`O=C(Nc1nc(C23CC4CC(CC(C4)C2)C3)cs1)c1cc2cc(Cl)ccc2oc1=O`: the TGI in test [1], in test [2], in test [3], in test [5], in test [6] and in test [7] was greater than 100 µM in each case. Besides, the TGI in test [8], in test [9], in test [10], in test [11], in [12] and in [13] was greater than 100 µM in each case. Further, the TGI in [14], in test [15], in test [16], in test [17], in test [20] and in test [18] was greater than 100 µM in each case.
